± gives the expanded uncertainty stated by the source.
Assay: xn = mol fraction of the nth substance listed
Conditions: Fluid (supercritical or subcritical phases), Buoyancy - hydrostatic balance with magnetic suspension - one sinker

C [methane] + O=C=O
mass density (303.29 K, 11998 kPa, x2 = 0.8988): 626.792 ± 6.3 kg/m3
mass density (303.29 K, 15006 kPa, x2 = 0.3997): 237.974 ± 1.7 kg/m3
mass density (305.01 K, 18003 kPa, x2 = 0.8988): 732.397 ± 4.9 kg/m3
mass density (305.04 K, 7997 kPa, x2 = 0.8988): 244.829 ± 2.6 kg/m3
mass density (305.06 K, 9978 kPa, x2 = 0.8988): 474.418 ± 7.9 kg/m3
mass density (305.08 K, 11001 kPa, x2 = 0.3997): 159.477 ± 1 kg/m3
mass density (305.09 K, 12002 kPa, x2 = 0.0998): 107.694 ± 0.75 kg/m3
mass density (305.1 K, 4001 kPa, x2 = 0.3997): 47.504 ± 0.26 kg/m3
mass density (305.1 K, 17995 kPa, x2 = 0.6015): 408.107 ± 3.1 kg/m3
mass density (305.11 K, 3997 kPa, x2 = 0.7985): 72.035 ± 0.34 kg/m3
mass density (305.11 K, 5997 kPa, x2 = 0.0998): 49.434 ± 0.32 kg/m3
mass density (305.11 K, 6003 kPa, x2 = 0.7985): 122.855 ± 0.66 kg/m3
mass density (305.12 K, 3998 kPa, x2 = 0.8988): 79.325 ± 0.38 kg/m3
mass density (305.12 K, 5006 kPa, x2 = 0.7985): 95.778 ± 0.47 kg/m3
mass density (305.13 K, 6992 kPa, x2 = 0.0998): 58.605 ± 0.38 kg/m3
mass density (305.13 K, 6994 kPa, x2 = 0.8988): 182.804 ± 1.3 kg/m3
mass density (305.13 K, 9002 kPa, x2 = 0.0998): 77.799 ± 0.52 kg/m3
mass density (305.13 K, 11012 kPa, x2 = 0.6015): 223.4 ± 1.7 kg/m3
mass density (305.13 K, 14994 kPa, x2 = 0.3997): 233.75 ± 1.6 kg/m3
mass density (305.14 K, 5001 kPa, x2 = 0.6015): 76.729 ± 0.38 kg/m3
mass density (305.14 K, 14994 kPa, x2 = 0.7985): 546.063 ± 4.5 kg/m3
mass density (305.15 K, 3979 kPa, x2 = 0.6015): 58.587 ± 0.29 kg/m3
mass density (305.15 K, 6000 kPa, x2 = 0.6015): 96.024 ± 0.5 kg/m3
mass density (305.15 K, 7998 kPa, x2 = 0.0998): 68.122 ± 0.45 kg/m3
mass density (305.15 K, 9004 kPa, x2 = 0.6015): 165.984 ± 1.1 kg/m3
mass density (305.15 K, 11001 kPa, x2 = 0.2017): 116.026 ± 0.77 kg/m3
mass density (305.15 K, 11998 kPa, x2 = 0.2017): 128.322 ± 0.86 kg/m3
mass density (305.15 K, 12006 kPa, x2 = 0.3997): 178.104 ± 1.2 kg/m3
mass density (305.16 K, 3003 kPa, x2 = 0.0998): 23.496 ± 0.17 kg/m3
mass density (305.16 K, 4003 kPa, x2 = 0.0998): 31.879 ± 0.22 kg/m3
mass density (305.16 K, 8002 kPa, x2 = 0.2017): 80.173 ± 0.49 kg/m3
mass density (305.16 K, 8998 kPa, x2 = 0.3997): 123.489 ± 0.72 kg/m3
mass density (305.16 K, 10996 kPa, x2 = 0.8988): 555.932 ± 7.1 kg/m3
mass density (305.16 K, 14996 kPa, x2 = 0.0998): 137.438 ± 0.97 kg/m3
mass density (305.16 K, 15000 kPa, x2 = 0.6015): 340.932 ± 2.8 kg/m3
mass density (305.16 K, 18000 kPa, x2 = 0.2017): 199.543 ± 1.4 kg/m3
mass density (305.17 K, 6999 kPa, x2 = 0.6015): 117.142 ± 0.65 kg/m3
mass density (305.17 K, 7000 kPa, x2 = 0.7985): 154.794 ± 0.95 kg/m3
mass density (305.17 K, 10003 kPa, x2 = 0.0998): 87.669 ± 0.6 kg/m3
mass density (305.17 K, 10999 kPa, x2 = 0.0998): 97.609 ± 0.67 kg/m3
mass density (305.17 K, 18001 kPa, x2 = 0.0998): 165.624 ± 1.2 kg/m3
mass density (305.18 K, 4001 kPa, x2 = 0.2017): 37.03 ± 0.22 kg/m3
mass density (305.18 K, 4996 kPa, x2 = 0.3997): 60.999 ± 0.32 kg/m3
mass density (305.18 K, 5001 kPa, x2 = 0.2017): 47.235 ± 0.28 kg/m3
mass density (305.18 K, 6000 kPa, x2 = 0.3997): 75.426 ± 0.41 kg/m3
mass density (305.18 K, 7002 kPa, x2 = 0.3997): 90.651 ± 0.5 kg/m3
mass density (305.18 K, 8000 kPa, x2 = 0.6015): 140.462 ± 0.83 kg/m3
mass density (305.18 K, 9997 kPa, x2 = 0.3997): 141.056 ± 0.86 kg/m3
mass density (305.18 K, 11999 kPa, x2 = 0.7985): 429.815 ± 4.5 kg/m3
mass density (305.18 K, 14999 kPa, x2 = 0.2017): 165.099 ± 1.2 kg/m3
mass density (305.18 K, 18002 kPa, x2 = 0.7985): 608.035 ± 4.3 kg/m3
mass density (305.19 K, 7000 kPa, x2 = 0.2017): 68.786 ± 0.42 kg/m3
mass density (305.19 K, 9001 kPa, x2 = 0.2017): 91.841 ± 0.57 kg/m3
mass density (305.19 K, 9001 kPa, x2 = 0.7985): 243.07 ± 2.1 kg/m3
mass density (305.19 K, 12005 kPa, x2 = 0.6015): 253.791 ± 2.1 kg/m3
mass density (305.2 K, 5004 kPa, x2 = 0.8988): 106.835 ± 0.57 kg/m3
mass density (305.2 K, 10000 kPa, x2 = 0.2017): 103.792 ± 0.67 kg/m3
mass density (305.2 K, 11001 kPa, x2 = 0.7985): 369.844 ± 4.1 kg/m3
mass density (305.2 K, 11998 kPa, x2 = 0.8988): 604.408 ± 6.4 kg/m3
mass density (305.21 K, 8996 kPa, x2 = 0.8988): 345.688 ± 5.7 kg/m3
mass density (305.21 K, 15000 kPa, x2 = 0.8988): 683.999 ± 5.4 kg/m3
mass density (305.22 K, 6000 kPa, x2 = 0.2017): 57.81 ± 0.35 kg/m3
mass density (305.22 K, 8006 kPa, x2 = 0.3997): 106.718 ± 0.61 kg/m3
mass density (305.22 K, 10006 kPa, x2 = 0.6015): 193.541 ± 1.4 kg/m3
mass density (305.23 K, 5002 kPa, x2 = 0.0998): 40.525 ± 0.27 kg/m3
mass density (305.23 K, 6002 kPa, x2 = 0.8988): 139.912 ± 0.94 kg/m3
mass density (305.23 K, 10000 kPa, x2 = 0.7985): 303.258 ± 3.2 kg/m3
mass density (305.24 K, 8000 kPa, x2 = 0.7985): 193.79 ± 1.4 kg/m3

— the NIST ThermoML archive (doi:10.1016/j.jct.2016.11.009)
